Measurements as given in patent US4971967A, “Quinolinecarboxylic acid derivatives, antibacterial compositions and use” (Kanebo Ltd, priority 1989, dated 1990).
≈ marks a conversion by molar mass, not a printed value.

Tests used:
[1] = tested on: Pseudomonas aeruginosa E-2; assay: Effect on treatment of general infectious disease, P. aeruginosa E-2 (Experiment 4); assay type: in vivo, ddY male mice infected with Pseudomonas aeruginosa; conditions: E2, 168 h, oral, 1 h after i.p. infection, 3.4×10^4 CFU/mouse, survival after one week
Protocol: (§1) The test microorganisms were subjected to standing culture in Trypto-Soya Agar "Nissui" (made by Nissui Seiyaku K.K., Japan) at 37° C. for 16 to 18 hours. The culture was then diluted with PBS (Dulbecco's phosphate buffered saline) and mixed with an equivalent amount of 10% (w/v) Mucin (BACTO MUCIN BACTERIOLOGICAL, made by Difco Co.) to prepare a microorganism solution. The thus prepared microorganism solution (0.5 ml each) was intraperitoneally inoculated to ddY male mice (5 weeks age, weighing 25-28 g, 5 mice in each group), to infect the animals. One hour after the infection, the compound (A) or (J) of the present invention or the known compound (X) suspended in 1% (w/v) aqueous gum arabic or the known compound (Y) dissolved in sterilized distilled water was orally adiministered to mice.
(§2) The mice were daily observed for one week, and from the survival number of mice after one week, the 50% effective dose (ED50) was calculated by Weil method.
Pseudomonas aeruginosa E-2 (3.4×10^4 CFU/mouse)
(§3) The procedure of Experiment 3 was repeated except that ddY male mice weighing 24 to 28 g were employed.

[2] = tested on: Acinetobacter calcoaceticus AC 54; assay: Antibacterial activity (MIC), Acinetobacter calcoaceticus AC 54; assay type: cell-based; conditions: AC54; Acinetobacter calcoaceticus AC 54, Gram -; read-out: Minimum inhibitory concentration (MIC)
Summary of the method: (§4)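 MIC, Japan Society of Chemotherapy method. Stocks 5000 μg/ml (0.1 N NaOH or sterile dist. water, depending on compound) → standard soln 1000 μg/ml in sterile water.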

[3] = tested on: Staphylococcus aureus IID 803; assay: Effect on treatment of general infectious disease, S. aureus IID 803 (Experiment 4); assay type: in vivo, ddY male mice infected with Staphylococcus aureus; conditions: IID803, 168 h, oral, 1 h after i.p. infection, 2.1×10^7 CFU/mouse, survival after one week
Protocol: as §1, §2
Staphylococcus aureus IID 803 (2.1×10^7 CFU/mouse)
as §3

[4] = tested on: Pseudomonas aeruginosa IFO 3445; assay: Antibacterial activity (MIC), P. aeruginosa IFO 3445; assay type: cell-based; conditions: Pseudomonas aeruginosa, IFO3445, Pseudomonas aeruginosa IFO 3445, Gram -; read-out: Minimum inhibitory concentration (MIC)
Summary of the method: as §4

[5] = tested on: Morganella morganii IFO 3848; assay: Antibacterial activity (MIC), Morganella morganii IFO 3848; assay type: cell-based; conditions: Morganella morganii, IFO3848, Morganella morganii IFO 3848, Gram -; read-out: Minimum inhibitory concentration (MIC)
Summary of the method: as §4

[6] = tested on: Bacillus subtilis ATCC 6633; assay: Antibacterial activity (MIC), Bacillus subtilis ATCC 6633; assay type: cell-based; conditions: Bacillus subtilis, ATCC6633, Bacillus subtilis ATCC 6633, Gram +; read-out: Minimum inhibitory concentration (MIC)
Summary of the method: as §4

Shigella sonnei EW-33 = assay: Antibacterial activity (MIC), Shigella sonnei EW-33; assay type: cell-based; conditions: Shigella sonnei, EW33, Shigella sonnei EW-33, Gram -; read-out: Minimum inhibitory concentration (MIC)
Summary of the method: as §4

[7] = tested on: Klebsiella pneumoniae PCI-602; assay: Antibacterial activity (MIC), Klebsiella pneumoniae PCI-602; assay type: cell-based; conditions: PCI602; Klebsiella pneumoniae PCI-602, Gram -; read-out: Minimum inhibitory concentration (MIC)
Summary of the method: as §4

[8] = tested on: Escherichia coli NIHJ JC-2; assay: Antibacterial activity (MIC), E. coli NIHJ JC-2; assay type: cell-based; conditions: NIHJJC2; Escherichia coli NIHJ JC-2, Gram -; read-out: Minimum inhibitory concentration (MIC)
Summary of the method: as §4

[9] = tested on: Staphylococcus epidermidis IAM-1296; assay: Antibacterial activity (MIC), S. epidermidis IAM-1296; assay type: cell-based; conditions: Staphylococcus epidermidis, IAM1296, Staphylococcus epidermidis IAM-1296, Gram +; read-out: Minimum inhibitory concentration (MIC)
Summary of the method: as §4

[10] = tested on: Pseudomonas aeruginosa E-2; assay: Antibacterial activity (MIC), P. aeruginosa E-2; assay type: cell-based; conditions: E2; Pseudomonas aeruginosa E-2, Gram -; read-out: Minimum inhibitory concentration (MIC)
Summary of the method: as §4

[11] = tested on: Pseudomonas aeruginosa NCTC 10490; assay: Antibacterial activity (MIC), P. aeruginosa NCTC 10490; assay type: cell-based; conditions: Pseudomonas aeruginosa, NCTC10490, Pseudomonas aeruginosa NCTC 10490, Gram -; read-out: Minimum inhibitory concentration (MIC)
Summary of the method: as §4

[12] = tested on: Staphylococcus aureus IID 803; assay: Antibacterial activity (MIC), S. aureus IID 803; assay type: cell-based; conditions: IID803; Staphylococcus aureus IID 803, Gram +; read-out: Minimum inhibitory concentration (MIC)
Summary of the method: as §4

infection = assay: Protective effects against infection (Experiments 3 and 4); assay type: in vivo, ddY male mice; conditions: result in words
Protocol: as §1, §2, §3

[13] = tested on: Streptococcus faecalis IID 682; assay: Antibacterial activity (MIC), Streptococcus faecalis IID 682; assay type: cell-based; conditions: Enterococcus faecalis, IID682, Streptococcus faecalis IID 682, Gram +; read-out: Minimum inhibitory concentration (MIC)
Summary of the method: as §4

Proteus vulgaris OX-19 = assay: Antibacterial activity (MIC), Proteus vulgaris OX-19; assay type: cell-based; conditions: OX19; Proteus vulgaris OX-19, Gram -; read-out: Minimum inhibitory concentration (MIC)
Summary of the method: as §4

[14] = tested on: Micrococcus luteus ATCC 9341; assay: Antibacterial activity (MIC), Micrococcus luteus ATCC 9341; assay type: cell-based; conditions: ATCC9341; Micrococcus luteus ATCC 9341, Gram +; read-out: Minimum inhibitory concentration (MIC)
Summary of the method: as §4

[15] = Low toxicity (Experiments 5 and 6); assay type: in vivo, ddY male mice; conditions: result in words
Protocol: The compound (A) or (J) of the present invention was suspended in 1% (w/v) aqueous gum arabic to prepare a suspension in concentration of 100 mg/ml. The suspension was orally administered to ddY male mice (5 weeks age, weighing 20 to 25 g, 5 mice in each group), which had been fasted for 18 hours, at a rate of 2000 mg/kg body weight of the compound (A) or (J).
(§5) The compound (O) or (P) of the present invention was suspended in sterilized distilled water to prepare a suspension. The suspension was orally adminstered to ddY male mice (5 weeks age, weighing 20 to 25 g, 5 mice in each group), which had been fasted for 18 hours.

[16] = Acute toxicity (LD50) (Experiment 6); conditions: mouse, in vivo; oral, mice fasted 18 hours, observed for a week
Protocol: as §5

Escherichia coli KC-14 = assay: Antibacterial activity (MIC), E. coli KC-14; assay type: cell-based; conditions: KC14; Escherichia coli KC-14, Gram -; read-out: Minimum inhibitory concentration (MIC)
Summary of the method: as §4

[17] = tested on: Enterobacter aerogenes ATCC 13048; assay: Antibacterial activity (MIC), Enterobacter aerogenes ATCC 13048; assay type: cell-based; conditions: Klebsiella aerogenes, ATCC13048; Enterobacter aerogenes ATCC 13048, Gram -; read-out: Minimum inhibitory concentration (MIC)
Summary of the method: as §4

[18] = tested on: Staphylococcus aureus FDA 209P JC-1; assay: Antibacterial activity (MIC), S. aureus FDA 209P JC-1; assay type: cell-based; conditions: FDA209P; Staphylococcus aureus FDA 209P JC-1, Gram +; read-out: Minimum inhibitory concentration (MIC)
Summary of the method: as §4

[19] = tested on: Citrobacter freundii NIHJ 10018-68; assay: Antibacterial activity (MIC), Citrobacter freundii NIHJ 10018-68; assay type: cell-based; conditions: Citrobacter freundii, NIHJ10018, Citrobacter freundii NIHJ 10018-68, Gram -; read-out: Minimum inhibitory concentration (MIC)
Summary of the method: as §4

[20] = tested on: Salmonella typhimurium IID 971; assay: Antibacterial activity (MIC), Salmonella typhimurium IID 971; assay type: cell-based; conditions: Salmonella enterica; Salmonella typhimurium IID 971, Gram -; read-out: Minimum inhibitory concentration (MIC)
Summary of the method: as §4

[21] = tested on: Proteus mirabilis IFO 3849; assay: Antibacterial activity (MIC), Proteus mirabilis IFO 3849; assay type: cell-based; conditions: IFO3849; Proteus mirabilis IFO 3849, Gram -; read-out: Minimum inhibitory concentration (MIC)
Summary of the method: as §4

Enterobacter cloacae 963 = assay: Antibacterial activity (MIC), Enterobacter cloacae 963; assay type: cell-based; conditions: Enterobacter cloacae, 963, Enterobacter cloacae 963, Gram -; read-out: Minimum inhibitory concentration (MIC)
Summary of the method: as §4

[22] = tested on: Serratia marcescens IAM 1184; assay: Antibacterial activity (MIC), Serratia marcescens IAM 1184; assay type: cell-based; conditions: Serratia marcescens, IAM1184, Serratia marcescens IAM 1184, Gram -; read-out: Minimum inhibitory concentration (MIC)
Summary of the method: as §4

Compound: CC1CN(c2c(F)cc3c(=O)c(C(=O)O)c4scc5n4c3c2N(C)C5)CC(C)N1C (stereo not drawn) [Compound (P), 9,1-(Methylimino)methano-7-fluoro-8-(3,4,5-trimethyl-1-piperazinyl)-5-oxo-5H-thiazolo[3,2-a]quinoline-4-carboxylic acid]
- ED50 [1]: 11.1 mg/kg
- MIC [2]: 0.025 µg/mL (≈ 0.0581 µM)
- ED50 [3]: 1.9 mg/kg
- MIC [4]: 3.13 µg/mL (≈ 7.27 µM)
- MIC [5]: 0.39 µg/mL (≈ 0.906 µM)
- MIC [6]: 0.006 µg/mL (≈ 0.0139 µM)
- MIC (Shigella sonnei EW-33): 0.05 µg/mL (≈ 0.116 µM)
- MIC [7]: 0.006 µg/mL (≈ 0.0139 µM)
- MIC [8]: 0.1 µg/mL (≈ 0.232 µM)
- MIC [9]: 0.1 µg/mL (≈ 0.232 µM)
- MIC [10]: 1.56 µg/mL (≈ 3.62 µM)
- MIC [11]: 1.56 µg/mL (≈ 3.62 µM)
- MIC [12]: 0.025 µg/mL (≈ 0.0581 µM)
- protective effects against infection (infection): excellent protective effects against infection
- MIC [13]: 0.2 µg/mL (≈ 0.465 µM)
- MIC (Proteus vulgaris OX-19): 0.1 µg/mL (≈ 0.232 µM)
- MIC [14]: 0.39 µg/mL (≈ 0.906 µM)
- toxicity [15]: low toxicity
- LD50 at 168 h [16]: 1070 mg/kg
- MIC (Escherichia coli KC-14): 0.1 µg/mL (≈ 0.232 µM)
- MIC [17]: 0.2 µg/mL (≈ 0.465 µM)
- MIC [18]: 0.025 µg/mL (≈ 0.0581 µM)
- MIC [19]: 1.56 µg/mL (≈ 3.62 µM)
- MIC [20]: 0.39 µg/mL (≈ 0.906 µM)
- MIC [21]: 0.78 µg/mL (≈ 1.81 µM)
- MIC (Enterobacter cloacae 963): 0.2 µg/mL (≈ 0.465 µM)
- MIC [22]: 1.56 µg/mL (≈ 3.62 µM)
